# Paper PMC12016938, “A small molecule PKCε inhibitor reduces hyperalgesia induced by paclitaxel or opioid withdrawal” (JCI Insight, 2025)
# Where “and” joins values, the source holds several entries; their conditions need not be identical. Equal values may be shown once. Read-outs that look alike come from different tables or passages of the source.
# Key:
# [1] = Pharmacokinetic studies in rats (plasma and brain); type: in vivo; settings: for Plasma 2h/24h / Cmax / concentration at 15 min / concentration at 30 min / concentration at 1 h / concentration at 4 h / concentration at 6 h / concentration at 8 h / concentration at 2 h / concentration at 24 h / half-life / concentration at 5 min: rat; for Cmax / concentration at 15 min / concentration at 30 min / concentration at 1 h / concentration at 4 h / concentration at 6 h / concentration at 8 h / concentration at 2 h / concentration at 24 h / half-life / concentration at 5 min: plasma; for concentration at 15 min / concentration at 30 min / concentration at 1 h / concentration at 4 h / concentration at 6 h / concentration at 8 h / concentration at 2 h / concentration at 24 h / concentration at 5 min: 40 mg/kg; for concentration at 2 h / concentration at 24 h: read-out: Plasma concentration
# Method: Because binding to plasma protein was approximately 90%, we predicted that the free concentration at each time point was 10 times lower than the measured plasma concentration.
# Pharmacokinetic studies in rats. Pharmacokinetics studies were contracted to the Drug Metabolism and Pharmacokinetics Core at Scripps Research. CP612 was dissolved at in 10% Tween-80/90% water and administered at 40 mg/kg/5 mL. Six rats were injected i.v. and 6 were injected i.p. Three rats were used to collect a full plasma time course from 5 minutes to 24 hours after dose. Then, brains were collected from these rats at 24 hours and from 3 additional rats at 2 hours after administration of compound. One rat receiving i.p. administration of CP612 was excluded as it had low/nondetectable levels indicating missed i.p. injection in that rat. Plasma samples were diluted 10-fold in blank plasma. Each brain was disrupted in potassium phosphate buffer (pH 7.4; 9 μL per 1mg tissue) on ice using brief sonication pulses. CP612 was detected with an API Triple Quad 5500 LC-MS/MS (SCIEX) using an MRM(+) method: CP612 (463/282, m/z) with carbamazepine (238/195.1, m/z) as an internal standard.
# Plasma stability = settings: for % Absolute: human plasma (hPL); for half-life: human
# Method: Plasma stability. To determine in vitro plasma stability, we calculated in vitro plasma half-life. We incubated test substances (0.6 μL) with 60 μL human plasma (BioIVT) in quadruplicate at 37°C.
# [2] = ip, i.p. 40 mg/kg, individual rat
# [3] = ip, i.p. 40 mg/kg, mean all rats
# [4] = ip, i.p. 40 mg/kg, mean of RM Plasma + Brain 24h rats
# [5] = iv, i.v. 40 mg/kg, individual rat
# [6] = iv, i.v. 40 mg/kg, mean all rats
# [7] = iv, i.v. 40 mg/kg, mean of RM Plasma + Brain 24h rats
compound,measurement,setting,value
N[C@H](CNC(=O)C1(c2ccc(Cl)cc2)CCCC1)c1ccc(C(=O)Nc2ccncc2)cc1 [CP612],Plasma 2h/24h,"[1]; i.v. 40 mg/kg, mean all rats",68.9705
same,Plasma 2h/24h,"[1]; i.v. 40 mg/kg, mean of RM Plasma + Brain 24h rats",68.9705
same,Cmax,"[1]; ip, rats, 40 mg/kg i.p.",29.3 ± 1 µM
same,Cmax,"[1]; iv, rats, 40 mg/kg i.v.",104 ± 3.1 µM
same,concentration at 15 min,[1]; [2],22 µM
same,concentration at 15 min,[1]; [3],21.9 µM
same,concentration at 30 min,[1]; [2],30.2 µM
same,concentration at 30 min,[1]; [3],25.4 µM
same,concentration at 1 h,[1]; [2],28.3 µM
same,concentration at 1 h,[1]; [3],28.3 µM
same,concentration at 4 h,[1]; [2],5.16 µM
same,concentration at 4 h,[1]; [3],5.82 µM
same,concentration at 6 h,[1]; [2],1.91 µM
same,concentration at 6 h,[1]; [3],1.89 µM
same,concentration at 8 h,[1]; [2],2.29 µM
same,concentration at 8 h,[1]; [3],2.13 µM
same,concentration at 2 h,[1]; [2],14.4 µM
same,concentration at 2 h,[1]; [3],15 µM
same,concentration at 2 h,"[1]; ip, i.p. 40 mg/kg, mean of Plasma 2h, Brain 2h rats",15.1 µM
same,concentration at 2 h,[1]; [4],14.7 µM
same,concentration at 24 h,[1]; [2],0.38 µM
same,concentration at 24 h,[1]; [3],0.498 µM
same,concentration at 24 h,[1]; [4],0.498 µM
same,half-life,"[1]; ip, rats, 40 mg/kg i.p.",6.8 ± 0.7 h
same,concentration at 5 min,[1]; [5],80.3 µM
same,concentration at 5 min,[1]; [6],80.3 µM
same,concentration at 15 min,[1]; [5],57 µM
same,concentration at 15 min,[1]; [6],52.6 µM
same,concentration at 30 min,[1]; [6],28.5 µM
same,concentration at 1 h,[1]; [5],26.4 µM
same,concentration at 1 h,[1]; [6],24.8 µM
same,concentration at 4 h,[1]; [5],3.97 µM
same,concentration at 4 h,[1]; [6],4.11 µM
same,concentration at 6 h,[1]; [5],1.68 µM
same,concentration at 6 h,[1]; [6],1.55 µM
same,concentration at 8 h,[1]; [5],1.42 µM
same,concentration at 8 h,[1]; [6],1.41 µM
same,concentration at 2 h,[1]; [5],11.3 µM
same,concentration at 2 h,[1]; [6],13.9 µM
same,concentration at 2 h,"[1]; iv, i.v. 40 mg/kg, mean of Plasma 2h, Brain 2h rats",16 µM
same,concentration at 2 h,[1]; [7],11.9 µM
same,concentration at 24 h,[1]; [6],0.192 µM
same,concentration at 24 h,[1]; [7],0.192 µM
same,half-life,"[1]; iv, rats, 40 mg/kg i.v.",4 ± 0.6 h
same,Brain penetration,"[1]; rats, i.p. or i.v. injection",brain penetrant
same,Plasma stability (in words),Plasma stability; human plasma,good
same,% Absolute,"Plasma stability; time 0 min, individual replicates",98.366% and 71.452% and 77.756%
same,% Absolute,"Plasma stability; time 15 min, individual replicates",34.724% and 41.198% and 31.011%
same,% Absolute,"Plasma stability; time 30 min, individual replicates",46.894% and 51.340% and 53.939%
same,% Absolute,"Plasma stability; time 60 min, individual replicates",48.950% and 36.305% and 40.476%
same,Plasma stability Cl,"Plasma stability; human plasma, 37°C",0.46 ± 0.04 µL/min
same,Cl (clearance),"Plasma stability; human plasma, individual replicates",0.504 and 0.448 and 0.437
same,t1/2 (half life),"Plasma stability; human plasma, individual replicates, time axis in min, in min",92.829 and 95.187
same,k,"Plasma stability; human plasma, slope of Ln Transform vs Time (min), individual replicates",-0.008 and -0.00747 and -0.007
same,half-life,"Plasma stability; human plasma, Plasma stability t½ (min), 37°C",1.5 ± 0.113 h
same,half-life,"Plasma stability; plasma, t1/2 (half life), Mean, human plasma, mean of replicates, time axis in min",1.5 h
same,half-life,"Plasma stability; plasma, t1/2 (half life), human plasma, individual replicates, time axis in min",1.37 h
